US11613538B2, “Method of inhibiting or reducing a viral infection” (PTC Therapeutics, Inc., priority 2009, dated 2023)

system: hypoxia-induced VEGF production in HeLa cells; experiment: cells; format: cell-based, human; details: Homo sapiens, HeLa

SMILES	EC50 [nM]
COCCOC(=O)N1CCc2c([nH]c3ccc(Cl)cc23)C1c1ccc(OCC2OCCO2)cc1 (stereo not drawn) [Compound 1042]	8 to 40
COc1ccc(C2c3[nH]c4ccc(S(C)(=O)=O)cc4c3CCN2C(=O)OC(C)(C)C)cc1 (stereo not drawn) [Compound 1502]	> 1000
CC1(C)C(=O)NC(=O)N1CCCOc1ccc(C2c3[nH]c4ccc(Cl)cc4c3CCN2C(=O)Oc2ccc(Cl)cc2)cc1 (stereo not drawn) [Compound 1671]	< 8
COc1ccc(C2c3[nH]c4ccc(Cl)cc4c3CCN2c2nc(C(F)(F)F)cs2)cc1 (stereo not drawn) [Compound 1589]	< 8
O[C@H](COc1ccc([C@H]2c3[nH]c4ccc(Cl)cc4c3CCN2c2ncccn2)cc1)CN1CCCCC1 [Compound 1310]	8 to 40
CCOC(=O)N1CCc2c([nH]c3cc(C(F)(F)F)ccc23)C1c1ccc(OC)cc1 (stereo not drawn) [Compound 1423]	> 1000
CC(C)COC(=O)N1CCc2c([nH]c3ccc(Cl)cc23)C1c1ccc(OCC[C@H](O)CO)cc1 (stereo partly drawn) [Compound 1175]	8 to 40
CN1CCN(C[C@@H](O)CCOc2ccc([C@H]3c4[nH]c5ccc(Cl)cc5c4CCN3c3ncccn3)cc2)CC1 [Compound 1306]	8 to 40
O=C(COc1ccc(C2c3[nH]c4ccc(Cl)cc4c3CCN2C(=O)Oc2ccc(F)cc2)cc1)N1CCN(CCO)CC1 (stereo not drawn) [Compound 1064]	8 to 40
CCCOC(=O)N1CCc2c([nH]c3ccc(Cl)cc23)C1c1ccc(OCC[C@H](O)CO)cc1 (stereo partly drawn) [Compound 1174]	8 to 40
O=C(OCCN1CCOCC1)N1CCC(Oc2ccc([C@H]3c4[nH]c5ccc(Cl)cc5c4CCN3C(=O)Oc3ccc(Cl)cc3)cc2)CC1 [Compound 1693]	< 8
C[Si](C)(C)CCS(=O)(=O)N1CCC(Oc2ccc(C3c4[nH]c5ccc(Cl)cc5c4CCN3C(=O)Oc3ccc(Cl)cc3)cc2)CC1 (stereo not drawn) [Compound 1581]	< 8
CCC(CO)(CO)COc1ccc([C@H]2c3[nH]c4ccc(Cl)cc4c3CCN2C(=O)OCC2(C)CC2)cc1 [Compound 1384]	< 8
N#CCOc1ccc(C2c3[nH]c4ccc(Cl)cc4c3CCN2C(=O)Oc2ccc(F)cc2)cc1 (stereo not drawn) [Compound 1548]	8 to 40
Cc1cc(NCCOc2ccc(C3c4[nH]c5ccc(Cl)cc5c4CCN3C(=O)OCC(C)C)cc2)on1 (stereo not drawn) [Compound 1405]	40 to 200
Cc1ccc(C2c3[nH]c4cc(F)ccc4c3CCN2C(=O)Oc2ccc(Cl)cc2)cc1 (stereo not drawn) [Compound 1457]	200 to 1000
O=C(OC1CCCC1)N1CCc2c([nH]c3ccc(Cl)cc23)[C@@H]1c1ccc(OC2CCOCC2)cc1 [Compound 1253]	< 8
C/C=C/C(=O)N1CCc2c([nH]c3ccc(Cl)cc23)C1c1ccc(OCCCN2CCOCC2)cc1 (stereo not drawn) [Compound 1509]	40 to 200
CCOC(=O)C(=O)N1CCc2c([nH]c3ccc(Cl)cc23)C1c1ccc(OC)cc1 (stereo not drawn) [Compound 1334]	40 to 200
CC#CCOC(=O)N1CCc2c([nH]c3ccc(Cl)cc23)C1c1ccc(OCCn2cc(C#N)c(N)n2)cc1 (stereo not drawn) [Compound 1434]	< 8
O=C(Oc1ccc(Cl)cc1)N1CCc2c([nH]c3ccc(Cl)cc23)C1c1ccc(OCCCN2CCC(CO)C2)cc1 (stereo not drawn) [Compound 1098]	8 to 40
CCN1CCN(C(=O)COc2ccc(C3c4[nH]c5ccc(Cl)cc5c4CCN3C(=O)Oc3ccc(F)cc3)cc2)CC1 (stereo not drawn) [Compound 1024]	40 to 200
CCOC(=O)N1CCc2c([nH]c3ccc(Cl)cc23)C1c1ccc(OCC(O)CNS(=O)(=O)CC)cc1 (stereo not drawn) [Compound 1473]	< 8
CCNC(=O)C(=O)N1CCc2c([nH]c3ccc(Cl)cc23)C1c1ccc(OC)cc1 (stereo not drawn) [Compound 1706]	40 to 200
C#CCCOC(=O)N1CCc2c([nH]c3ccc(Cl)cc23)C1c1ccc(OCC(O)CO)cc1 (stereo not drawn) [Compound 1019]	8 to 40
COc1ccc(C2c3[nH]c4ccc(Cl)cc4c3CCN2C(=O)[C@H](Cc2ccccc2)NC(C)=O)cc1 (stereo partly drawn) [Compound 1505]	> 1000

SMILES	EC50 [nM]
O[C@@H](COc1ccc([C@H]2c3[nH]c4ccc(Cl)cc4c3CCN2c2ncccn2)cc1)CN1CCCCC1 [Compound 1313]	8 to 40
CC#CCOC(=O)N1CCc2c([nH]c3ccc(Cl)cc23)C1c1ccc(OCC(O)CN)cc1 (stereo not drawn) [Compound 1002]	40 to 200
O=C(OCC1CCC1)N1CCc2c([nH]c3ccc(Cl)cc23)[C@@H]1c1ccc(OC[C@@H](O)CO)cc1 [Compound 1382]	< 8
CCOC(=O)N1CCc2c([nH]c3ccc(Cl)cc23)[C@@H]1c1ccc(Oc2cnccn2)cc1 [Compound 1574]	< 8
O[C@@H](CCOc1ccc([C@H]2c3[nH]c4ccc(Cl)cc4c3CCN2c2ncccn2)cc1)CN1CCCCC1 [Compound 1304]	< 8
CC(C)=CC(=O)N1CCc2c([nH]c3ccc(Cl)cc23)C1c1ccc(OCCCn2cncn2)cc1 (stereo not drawn) [Compound 1542]	< 8
CN1C(=O)CN(CCCOc2ccc(C3c4[nH]c5ccc(Cl)cc5c4CCN3C(=O)Oc3ccc(Cl)cc3)cc2)C1=O (stereo not drawn) [Compound 1673]	< 8
COc1ccc(C2c3[nH]c4ccc(Cl)cc4c3CCN2c2nc(C)cs2)cc1 (stereo not drawn) [Compound 1584]	< 8
CCOC(=O)N1CCc2c([nH]c3ccc(Cl)cc23)C1c1ccc(OCC(O)CNC(=O)COC)cc1 (stereo not drawn) [Compound 1085]	< 8
CCOC(=O)N1CCc2c([nH]c3ccc(Cl)cc23)C1c1ccc(OCC(O)CNC(=O)OCCOC)cc1 (stereo not drawn) [Compound 1472]	< 8
COc1ccc(OC(=O)N2CCc3c([nH]c4ccc([S+](C)[O-])cc34)C2c2ccc(OC)cc2)cc1 (stereo not drawn) [Compound 1490]	> 1000
COCCN(C)CCCOc1cccc(C2c3[nH]c4ccc(Cl)cc4c3CCN2C(=O)Oc2ccc(F)cc2)c1 (stereo not drawn) [Compound 1121]	> 1000
C#CCOC(=O)N1CCc2c([nH]c3ccc(Cl)cc23)C1c1ccc(OCC(O)CO)cc1 (stereo not drawn) [Compound 1020]	8 to 40
COCCOC(=O)N1CCc2c([nH]c3ccc(Cl)cc23)C1c1ccc(OCCCn2nccn2)cc1 (stereo not drawn) [Compound 1084]	8 to 40
CCOC(=O)N1CCc2c([nH]c3ccc(Cl)cc23)[C@@H]1c1ccc(OCC2COC(C)(C)OC2)cc1 [Compound 1206]	< 8
CN1CCN(CCCOc2cccc(C3c4[nH]c5ccc(Cl)cc5c4CCN3C(=O)Oc3ccc(F)cc3)c2)CC1 (stereo not drawn) [Compound 1113]	200 to 1000
COc1ccc(OC(=O)N2CCc3c([nH]c4ccc(Cl)cc34)C2c2ccc(OCCCN3CCOCC3)cc2)cc1 (stereo not drawn) [Compound 1030]	8 to 40
COc1ccc(C2c3[nH]c4ccc(Cl)cc4c3CCN2C(=O)Oc2ccc(Cl)cc2)cc1OCCCN1CCOCC1 (stereo not drawn) [Compound 1096]	200 to 1000
CCOC(=O)N1CCc2c([nH]c3ccc(Cl)cc23)C1c1ccc(OC)nc1 (stereo not drawn) [Compound 1480]	8 to 40
COc1ccc(C2c3[nH]c4ccc(Cl)cc4c3CCN2C(=O)C(=O)OC2CCCC2)cc1 (stereo not drawn) [Compound 1719]	> 1000
COc1ccc(C2c3[nH]c4ccc(Cl)cc4c3CCN2C(=O)Oc2ccc(Cl)cc2)cc1OCCN1CCOCC1 (stereo not drawn) [Compound 1095]	200 to 1000
CCOC(=O)N1CCc2c([nH]c3ccc(Cl)cc23)[C@@H]1c1ccc(OCCCO)cc1 [Compound 1251]	< 8
O[C@@H](CCOc1ccc([C@H]2c3[nH]c4ccc(Cl)cc4c3CCN2c2ncccn2)cc1)CN1CCOCC1 [Compound 1303]	< 8
CCOC(=O)N1CCc2c([nH]c3ccc(Cl)cc23)C1c1cccc(OCCCn2ccnc2)c1 (stereo not drawn) [Compound 1122]	> 1000
CCCOC(=O)NCC(O)CCOc1ccc([C@H]2c3[nH]c4ccc(Cl)cc4c3CCN2C(=O)OCC)cc1 (stereo partly drawn) [Compound 1620]	< 8
